The target of experiment [1] is T1, Eukaryotic translation initiation factor 2-alpha kinase 3 (Homo sapiens, UniProt Q9NZJ5). Nature of the experiment: Counterscreen assay for PERK inhibitors: Dose response cell-based high throughput screening assay to measure inhibition of PERK at 6 hours. [Related pubchem assays: 1522, 1416 ]. In kind it is functional. For orientation: Counterscreens check selectivity or assay interference.

Experiment [2] concerns the target T1, Eukaryotic translation initiation factor 2-alpha kinase 3. The experiment can be described thus: Dose response cell-based high-throughput screening assay to measure PERK inhibition. [Related pubchem assays: 1416 ]. In kind it is functional.
The target of experiment [3] is Melanin-concentrating hormone receptor 1 (Homo sapiens, UniProt Q99705). Nature of the experiment: Fluorescence-based counterscreen for antagonists of the G-protein coupled receptor 7 (GPR7): cell-based high throughput dose response assay to identify antagonists of the melanin-concentrating hormone receptor 1 (MCHR1). In kind it is functional.
Melanin-concentrating hormone receptor 1, sequence (Q99705 whole entry): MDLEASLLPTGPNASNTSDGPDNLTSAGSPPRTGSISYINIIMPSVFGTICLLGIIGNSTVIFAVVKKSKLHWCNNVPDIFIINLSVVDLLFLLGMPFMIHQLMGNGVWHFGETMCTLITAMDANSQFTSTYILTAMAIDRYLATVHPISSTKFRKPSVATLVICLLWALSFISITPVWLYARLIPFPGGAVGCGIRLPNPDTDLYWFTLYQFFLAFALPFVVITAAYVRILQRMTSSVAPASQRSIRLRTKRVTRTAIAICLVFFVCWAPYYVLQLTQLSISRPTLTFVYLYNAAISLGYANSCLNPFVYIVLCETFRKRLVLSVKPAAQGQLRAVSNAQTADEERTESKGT
Experiment [4] addresses T2, Corticotropin-releasing factor receptor 2/Corticotropin-releasing factor-binding protein (Homo sapiens, UniProt P24387+Q13324).
T2 sequence (Q13324 whole entry): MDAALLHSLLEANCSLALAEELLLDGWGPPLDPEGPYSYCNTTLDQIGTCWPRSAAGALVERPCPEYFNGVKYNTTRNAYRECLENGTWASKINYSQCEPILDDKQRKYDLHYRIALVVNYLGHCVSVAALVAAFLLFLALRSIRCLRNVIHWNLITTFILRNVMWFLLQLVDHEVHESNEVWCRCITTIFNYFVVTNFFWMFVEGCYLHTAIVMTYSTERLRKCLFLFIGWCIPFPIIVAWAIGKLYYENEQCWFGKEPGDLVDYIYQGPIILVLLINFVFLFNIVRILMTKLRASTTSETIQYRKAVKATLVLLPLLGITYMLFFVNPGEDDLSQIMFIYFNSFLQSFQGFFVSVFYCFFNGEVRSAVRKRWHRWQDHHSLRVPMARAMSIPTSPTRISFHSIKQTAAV
T2 sequence (P24387 whole entry): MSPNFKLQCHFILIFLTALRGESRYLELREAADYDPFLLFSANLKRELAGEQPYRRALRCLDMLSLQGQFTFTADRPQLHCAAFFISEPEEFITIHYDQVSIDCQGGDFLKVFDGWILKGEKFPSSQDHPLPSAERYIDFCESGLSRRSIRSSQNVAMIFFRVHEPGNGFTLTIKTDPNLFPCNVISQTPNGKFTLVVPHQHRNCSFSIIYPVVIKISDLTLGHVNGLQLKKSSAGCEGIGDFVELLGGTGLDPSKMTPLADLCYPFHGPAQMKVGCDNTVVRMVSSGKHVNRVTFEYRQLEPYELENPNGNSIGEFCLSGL
Nature of the experiment: activators of CRF receptor 2 with binding protein – uHTS hits, confirmation (AID 602473). In kind it is functional. Conditions: read-out: EC50_Mean.

In experiment [5] the target is T3, Neuropeptides B/W receptor type 1 (Homo sapiens, UniProt P48145).
T3 sequence (P48145 whole entry): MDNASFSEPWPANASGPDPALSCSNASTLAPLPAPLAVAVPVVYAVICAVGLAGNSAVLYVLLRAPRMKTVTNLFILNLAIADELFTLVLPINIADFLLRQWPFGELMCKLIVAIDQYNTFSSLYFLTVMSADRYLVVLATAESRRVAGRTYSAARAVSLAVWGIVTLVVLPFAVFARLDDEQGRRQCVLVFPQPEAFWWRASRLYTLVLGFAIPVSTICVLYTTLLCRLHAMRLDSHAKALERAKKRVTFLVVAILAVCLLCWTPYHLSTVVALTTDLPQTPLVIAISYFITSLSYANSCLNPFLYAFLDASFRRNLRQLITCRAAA
Nature of the experiment: Fluorescence-based dose response cell-based high throughput screening assay to identify antagonists of the G-protein coupled receptor 7 (GPR7). [Related pubchem assays: 1952 (Screening assay (GPR7 antagonists).), 1880 (Summary AID.)]. In kind it is functional.

For experiment [6], the target named is Eukaryotic translation initiation factor 4H (Homo sapiens, UniProt Q15056). Nature of the experiment: human eIF4H binding inhibitors, primary screen, translation initiation inhibitor project, biochemical, uHTS, fluorescence polarization (AID 2012).
In experiment [7] the target is Polyadenylate-binding protein 1 (Homo sapiens, UniProt P11940). The experiment can be described thus: PABP poly(A) RNA binding inhibitors, primary screen, biochemical, fluorescence polarization, uHTS (AID 2014). (In fluorescence polarisation assays a small probe gives low polarisation when free and higher when bound to something large.)
Polyadenylate-binding protein 1, sequence (P11940 whole entry): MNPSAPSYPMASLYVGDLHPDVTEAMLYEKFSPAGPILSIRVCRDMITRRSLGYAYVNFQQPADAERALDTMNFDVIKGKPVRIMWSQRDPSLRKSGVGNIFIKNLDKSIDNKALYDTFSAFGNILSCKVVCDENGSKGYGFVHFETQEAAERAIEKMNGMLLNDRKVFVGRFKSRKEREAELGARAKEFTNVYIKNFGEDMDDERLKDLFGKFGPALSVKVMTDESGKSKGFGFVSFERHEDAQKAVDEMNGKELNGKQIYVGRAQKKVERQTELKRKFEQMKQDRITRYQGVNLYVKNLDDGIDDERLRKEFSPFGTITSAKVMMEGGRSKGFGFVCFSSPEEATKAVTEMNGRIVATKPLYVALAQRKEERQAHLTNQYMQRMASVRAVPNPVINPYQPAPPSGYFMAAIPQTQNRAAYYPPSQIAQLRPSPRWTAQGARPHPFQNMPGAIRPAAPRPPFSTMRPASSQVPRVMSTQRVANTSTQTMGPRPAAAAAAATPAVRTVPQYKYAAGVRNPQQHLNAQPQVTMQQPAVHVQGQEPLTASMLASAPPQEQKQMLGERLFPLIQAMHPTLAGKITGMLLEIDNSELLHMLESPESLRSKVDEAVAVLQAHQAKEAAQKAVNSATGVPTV
Experiment [8] addresses Cyclin-dependent kinase 5/CDK5 activator 1 (Homo sapiens, UniProt Q00535). The experiment can be described thus: CDK5/p35 kinase inhibitors, dose response, biochemical, cherry-picked samples, set 2 (AID 504545).
Experiment [9] concerns the target Peroxisome proliferator-activated receptor gamma/Nuclear receptor corepressor 2 (Homo sapiens, UniProt P37231+Q9Y618). In kind it is functional.
Experiment [10] has as its target Photoreceptor-specific nuclear receptor (Homo sapiens, UniProt Q9Y5X4). In kind it is functional.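 Further: potency for compounds that break the NR2E3 corepressor complex and count as activators.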

Broadly, the IC50 is the concentration at which inhibition is half-maximal. The AC50 is the concentration at which the activity in the assay is half-maximal.

Activity calls are given as the source filed them.

T1 sequence (Q9NZJ5 whole entry): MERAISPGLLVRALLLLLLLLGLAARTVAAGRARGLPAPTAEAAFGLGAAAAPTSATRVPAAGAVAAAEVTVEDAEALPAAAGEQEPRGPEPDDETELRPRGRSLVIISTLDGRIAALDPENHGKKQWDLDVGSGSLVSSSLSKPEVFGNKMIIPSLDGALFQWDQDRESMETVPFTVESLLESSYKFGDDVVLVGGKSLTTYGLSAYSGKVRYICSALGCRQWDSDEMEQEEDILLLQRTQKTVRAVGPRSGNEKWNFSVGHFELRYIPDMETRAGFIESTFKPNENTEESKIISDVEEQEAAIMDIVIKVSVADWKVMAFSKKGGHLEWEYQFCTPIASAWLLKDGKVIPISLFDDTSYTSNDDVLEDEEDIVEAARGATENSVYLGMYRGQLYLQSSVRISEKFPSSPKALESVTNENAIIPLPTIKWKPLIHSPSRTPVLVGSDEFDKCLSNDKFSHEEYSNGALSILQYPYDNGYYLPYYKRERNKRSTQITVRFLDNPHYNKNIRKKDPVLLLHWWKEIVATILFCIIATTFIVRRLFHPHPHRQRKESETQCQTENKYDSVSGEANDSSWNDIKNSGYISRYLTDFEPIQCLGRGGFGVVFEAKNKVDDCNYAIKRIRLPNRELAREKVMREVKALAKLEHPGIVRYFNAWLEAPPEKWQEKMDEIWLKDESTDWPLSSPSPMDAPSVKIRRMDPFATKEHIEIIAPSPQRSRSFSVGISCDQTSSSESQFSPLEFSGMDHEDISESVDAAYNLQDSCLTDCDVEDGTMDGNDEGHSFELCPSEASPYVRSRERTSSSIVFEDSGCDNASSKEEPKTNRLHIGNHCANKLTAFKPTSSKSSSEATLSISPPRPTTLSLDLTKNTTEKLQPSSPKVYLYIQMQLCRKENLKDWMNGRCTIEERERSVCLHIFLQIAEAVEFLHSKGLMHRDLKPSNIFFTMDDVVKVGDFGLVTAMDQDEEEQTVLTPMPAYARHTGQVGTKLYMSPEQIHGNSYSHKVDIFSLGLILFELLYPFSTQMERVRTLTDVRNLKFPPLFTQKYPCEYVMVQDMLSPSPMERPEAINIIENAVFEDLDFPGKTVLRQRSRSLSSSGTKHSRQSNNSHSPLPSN
Cyclin-dependent kinase 5/CDK5 activator 1, sequence (Q00535 whole entry): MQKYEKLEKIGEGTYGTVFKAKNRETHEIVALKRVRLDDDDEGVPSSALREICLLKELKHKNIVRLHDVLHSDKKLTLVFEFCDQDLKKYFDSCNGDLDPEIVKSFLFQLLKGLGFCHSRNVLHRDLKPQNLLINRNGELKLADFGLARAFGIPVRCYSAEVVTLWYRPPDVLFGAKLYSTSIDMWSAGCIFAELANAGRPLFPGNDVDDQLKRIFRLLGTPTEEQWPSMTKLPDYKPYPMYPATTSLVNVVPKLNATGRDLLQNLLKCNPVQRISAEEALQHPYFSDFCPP
Cyclin-dependent kinase 5/CDK5 activator 1, sequence (Q15078 whole entry, further chain): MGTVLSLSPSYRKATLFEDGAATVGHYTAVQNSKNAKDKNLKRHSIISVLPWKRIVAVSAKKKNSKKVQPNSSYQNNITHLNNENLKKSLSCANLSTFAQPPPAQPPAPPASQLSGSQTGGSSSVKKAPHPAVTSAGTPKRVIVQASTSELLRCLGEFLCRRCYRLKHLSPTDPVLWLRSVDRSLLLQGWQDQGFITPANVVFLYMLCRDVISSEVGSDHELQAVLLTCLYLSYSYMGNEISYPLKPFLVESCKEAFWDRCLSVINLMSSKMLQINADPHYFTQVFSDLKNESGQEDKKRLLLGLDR
Photoreceptor-specific nuclear receptor, sequence (Q9Y5X4 whole entry): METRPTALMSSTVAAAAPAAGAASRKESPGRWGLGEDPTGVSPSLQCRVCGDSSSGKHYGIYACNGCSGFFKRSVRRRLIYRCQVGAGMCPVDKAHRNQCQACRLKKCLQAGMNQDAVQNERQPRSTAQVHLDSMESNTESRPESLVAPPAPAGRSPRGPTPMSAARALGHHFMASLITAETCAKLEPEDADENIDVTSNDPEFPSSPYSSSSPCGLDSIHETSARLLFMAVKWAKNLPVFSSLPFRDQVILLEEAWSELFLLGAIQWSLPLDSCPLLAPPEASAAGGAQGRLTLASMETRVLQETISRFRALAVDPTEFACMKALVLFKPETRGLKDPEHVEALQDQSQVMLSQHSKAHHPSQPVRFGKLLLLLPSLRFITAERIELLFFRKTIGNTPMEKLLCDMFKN

Turning to `CCCn1cnc2c(S)nc(N)nc21`, the EC50 in experiment [1] and in experiment [2] was > 55.7 µM (not active) throughout.
In the case of `Cc1cccc(NC(=S)NC(=O)Cc2ccccc2)c1C`, the figures for the IC50 in experiment [3] and in experiment [5] were 13.3 µM (not active) and 6.65 µM (active), respectively. Besides, the EC50 in experiment [4] is 9.75 µM (active).
On to `C[N+]1(C)[C@@H]2CC[C@H]1CC(OC(=O)[C@@H](CO)c1ccccc1)C2` (stereo not given in full), for which the IC50 in [6] is > 100 µM (inactive); in experiment [7] it was 4.91 µM (active).
For the compound `CC(C)(C)C(=O)c1sc(Nc2ccccc2)nc1N`, in experiment [8], the AC50 was 23.4 µM (active).
Take `Cc1cc(-c2ccc(Cl)cc2)c(C#N)c(N)n1`: the results for the IC50 in experiment [9] and in experiment [10] were 3.26 µM (active) and 33 µM (not active), respectively.

The record behind these values is ChEMBL document CHEMBL1201862, “PubChem BioAssay data set” (2004).
